Data published in patent US6737383B1, “Herbicidal oxadiazolidines” (priority 1999, dated 2004).

Key:
[1] = tested on: giant foxtail; experiment: Test B pre/postemergence giant foxtail; type: in vivo, Setaria faberii
Outline: (§1)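 Response is a visual 0-to-10 score relative to untreated plants, where 0 means no effect and 10 means complete control, taken twelve to sixteen days after application. Treatments went onto soil at planting and onto foliage of 1- to 4-leaf plants, using a surfactant-containing non-phytotoxic solvent.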

[2] = tested on: crabgrass; experiment: Test B pre/postemergence crabgrass; type: in vivo, Digitaria sanguinalis
Outline: as §1

[3] = tested on: sugar beet; experiment: Test B pre/postemergence sugar beet; type: in vivo, Beta vulgaris
Outline: as §1

[4] = tested on: rape; experiment: Test B pre/postemergence rape; type: in vivo, Brassica napus
Outline: as §1

[5] = tested on: surinam grass; experiment: Test B pre/postemergence surinam grass; type: in vivo, Brachiaria decumbens
Outline: as §1

[6] = tested on: cocklebur; experiment: Test B pre/postemergence cocklebur; type: in vivo, Xanthium strumarium
Outline: as §1

[7] = tested on: bamyardgrass; experiment: Test B flood test barnyardgrass; type: in vivo, Echinochloa crus-galli
Outline: (§2)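 Flood test on plants grown to the 2-leaf stage; treated plants kept in greenhouse twelve to sixteen days, then visually rated against controls on a 0 (no effect) to 10 (complete control) scale.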

[8] = tested on: bedstraw; experiment: Test B pre/postemergence bedstraw; type: in vivo, Galium aparine
Outline: as §1

[9] = tested on: velvetleaf; experiment: Test B pre/postemergence velvetleaf; type: in vivo, Abutilon theophrasti
Outline: as §1

[10] = tested on: blackgrass; experiment: Test B pre/postemergence blackgrass; type: in vivo, Alopecurus myosuroides
Outline: as §1

[11] = tested on: rice; experiment: Test B flood test rice; type: in vivo, Oryza sativa
Outline: as §2

[12] = tested on: corn; experiment: Test B pre/postemergence corn; type: in vivo, Zea mays
Outline: as §1

[13] = tested on: wild oat; experiment: Test B pre/postemergence wild oat; type: in vivo, Avena fatua
Outline: as §1

[14] = tested on: smallflower flatsedge; experiment: Test B flood test smallflower flatsedge; type: in vivo, Cyperus difformis
Outline: as §2

[15] = tested on: pigweed; experiment: Test B pre/postemergence pigweed; type: in vivo, Amaranthus retroflexus
Outline: as §1

[16] = tested on: morningglory; experiment: Test B pre/postemergence morningglory; type: in vivo, Ipomoea hederacea
Outline: as §1

[17] = Postemergence, Rate 125 g/ha, scale of 0 to 10 where 0 is no effect and 10 is complete control
[18] = Preemergence, Rate 62 g/ha, scale 0 to 10 (0 no effect, 10 complete control)
[19] = Preemergence, Rate 125 g/ha, 0 is no effect, 10 is complete control
[20] = Preemergence, Rate 250 g/ha, scale 0 to 10, 0 is no effect, 10 is complete control
[21] = Preemergence, Rate 500 g/ha, scale 0 to 10 (0 no effect, 10 complete control)
[22] = Rate 62 g/ha, Postemergence, scale of 0 to 10 where 0 is no effect and 10 is complete control
[23] = Rate 250 g/ha, Postemergence, scale 0 to 10, 0 is no effect, 10 is complete control
[24] = Rate 500 g/ha, Postemergence, scale 0 to 10
[25] = Postemergence (flood test species), Rate 125 g/ha, scale of 0 to 10 where 0 is no effect and 10 is complete control
[26] = Rate 62 g/ha, Postemergence section, flood test species, scale of 0 to 10 where 0 is no effect and 10 is complete control
[27] = Rate 250 g/ha, Postemergence (flood test), scale 0 to 10, 0 is no effect, 10 is complete control
[28] = Rate 500 g/ha, listed under Postemergence (flood test species), scale 0 to 10

With `COc1ccccc1Cn1c(=O)on(C(=O)N(c2ccc(F)cc2)C(C)C)c1=O` [Compound 143] the “Giant foxtail plant response rating” value [1, 17] was 2, the “Giant foxtail plant response rating” value [1, 18] was 3 and the “Giant foxtail plant response rating (0 to 10 scale)” value [1, 19] was 9. The “Giant foxtail plant response rating” value [1, 20] was 9, the “Giant foxtail plant response rating” value [1, 21] was 10 and the “Giant foxtail plant response rating” value [1, 22] was 0. The “Plant response rating, Giant foxtail” value [1, 23] was 5, the “Giant foxtail plant response rating” value [1, 24] was 7 and the “Crabgrass plant response rating” value [2, 17] was 8. The “Crabgrass plant response rating” value [2, 18] was 3, the “Crabgrass plant response rating (0 to 10 scale)” value [2, 19] was 7 and the “Crabgrass plant response rating” value [2, 20] was 8. The “Crabgrass plant response rating” value [2, 21] was 10, the “Crabgrass plant response rating” value [2, 22] was 1 and the “Plant response rating, Crabgrass” value [2, 23] was 8. The “Crabgrass plant response rating” value [2, 24] was 9, the “Sugarbeets plant response rating” value [3, 17] was 6 and the “Sugarbeets plant response rating” value [3, 18] was 0. For the same compound, the “Sugarbeets plant response rating (0 to 10 scale)” value [3, 19] was 1, the “Sugarbeets plant response rating” value [3, 20] was 3 and the “Sugarbeets plant response rating” value [3, 21] was 9. The “Sugarbeets plant response rating” value [3, 22] was 1, the “Plant response rating, Sugarbeets” value [3, 23] was 6 and the “Sugarbeets plant response rating” value [3, 24] was 6. The “Rape plant response rating” value [4, 17] was 0, the “Rape plant response rating” value [4, 18] was 0 and the “Rape plant response rating (0 to 10 scale)” value [4, 19] was 3. The “Rape plant response rating” value [4, 20] was 4, the “Rape plant response rating” value [4, 21] was 6 and the “Rape plant response rating” value [4, 22] was 0. The “Plant response rating, Rape” value [4, 23] was 0, the “Rape plant response rating” value [4, 24] was 3 and the “B. signalgrass plant response rating” value [5, 17] was 0. For the same compound, the “B. signalgrass plant response rating” value [5, 18] was 0, the “B. signalgrass plant response rating (0 to 10 scale)” value [5, 19] was 0 and the “B. signalgrass plant response rating” value [5, 20] was 2. For the same compound, the “B. signalgrass plant response rating” value [5, 21] was 5, the “B. signalgrass plant response rating” value [5, 22] was 0 and the “Plant response rating, B. signalgrass” value [5, 23] was 0. For the same compound, the “B. signalgrass plant response rating” value ([5]; Rate 500 g/ha, Postemergence, scale of 0 to 10 where 0 is no effect and 10 is complete control) was 5, the “Cocklebur plant response rating” value [6, 17] was 3 and the “Cocklebur plant response rating” value [6, 18] was 0. For the same compound, the “Cocklebur plant response rating (0 to 10 scale)” value [6, 19] was 0, the “Cocklebur plant response rating” value [6, 21] was 0 and the “Cocklebur plant response rating” value [6, 22] was 1. For the same compound, the “Plant response rating, Cocklebur” value [6, 23] was 3, the “Cocklebur plant response rating” value [6, 24] was 4 and the “Barnyardgrass plant response rating” value [7, 25] was 8. For the same compound, the “Barnyardgrass plant response rating” value [7, 26] was 0, the “Plant response rating, Barnyardgrass” value [7, 27] was 8 and the “Barnyardgrass plant response rating” value ([7]; Rate 500 g/ha, listed under Postemergence (flood test species), scale 0 to 10, 0 no effect, 10 complete control) was 10. For the same compound, the “Bedstraw plant response rating” value [8, 17] was 6, the “Bedstraw plant response rating” value [8, 18] was 0 and the “Bedstraw plant response rating (0 to 10 scale)” value [8, 19] was 0. For the same compound, the “Bedstraw plant response rating” value [8, 20] was 0, the “Bedstraw plant response rating” value [8, 21] was 0 and the “Bedstraw plant response rating” value [8, 22] was 5. For the same compound, the “Plant response rating, Bedstraw” value [8, 23] was 6, the “Bedstraw plant response rating” value ([8]; Rate 500 g/ha, Postemergence, scale 0 to 10, 0 no effect, 10 complete control) was 8 and the “Velvetleaf plant response rating” value [9, 17] was 2. For the same compound, the “Velvetleaf plant response rating” value [9, 18] was 0, the “Velvetleaf plant response rating (0 to 10 scale)” value [9, 19] was 0 and the “Velvetleaf plant response rating” value [9, 20] was 0. The “Velvetleaf plant response rating” value [9, 21] was 0, the “Velvetleaf plant response rating” value [9, 22] was 2 and the “Plant response rating, Velvetleaf” value [9, 23] was 2. The “Velvetleaf plant response rating” value [9, 24] was 2, the “Blackgrass plant response rating” value [10, 17] was 3 and the “Blackgrass plant response rating” value [10, 18] was 4. For the same compound, the “Blackgrass plant response rating (0 to 10 scale)” value [10, 19] was 5, the “Blackgrass plant response rating” value [10, 20] was 5 and the “Blackgrass plant response rating” value [10, 21] was 6. For the same compound, the “Blackgrass plant response rating” value [10, 22] was 3, the “Plant response rating, Blackgrass” value [10, 23] was 5 and the “Blackgrass plant response rating” value [10, 24] was 8. The “Rice plant response rating” value [11, 25] was 0, the “Rice plant response rating” value [11, 26] was 0 and the “Plant response rating, Rice” value [11, 27] was 2. The “Rice plant response rating” value [11, 28] was 4, the “Corn plant response rating” value [12, 17] was 0 and the “Corn plant response rating” value [12, 18] was 0. For the same compound, the “Corn plant response rating (0 to 10 scale)” value [12, 19] was 0, the “Corn plant response rating” value [12, 20] was 0 and the “Corn plant response rating” value [12, 21] was 0. The “Corn plant response rating” value [12, 22] was 0, the “Plant response rating, Corn” value [12, 23] was 0 and the “Corn plant response rating” value [12, 24] was 0. The “Wild oats plant response rating” value [13, 17] was 0, the “Wild oats plant response rating” value [13, 18] was 0 and the “Wild oats plant response rating (0 to 10 scale)” value [13, 19] was 5. The “Wild oats plant response rating” value [13, 20] was 5, the “Wild oats plant response rating” value [13, 21] was 5 and the “Wild oats plant response rating” value [13, 22] was 0. For the same compound, the “Plant response rating, Wild oats” value [13, 23] was 0, the “Wild oats plant response rating” value [13, 24] was 0 and the “S. Flatsedge plant response rating” value [14, 25] was 0. The “S. Flatsedge plant response rating” value [14, 26] was 0, the “Plant response rating, S. Flatsedge” value [14, 27] was 2 and the “S. Flatsedge plant response rating” value [14, 28] was 8. The “Redroot pigweed plant response rating” value [15, 17] was 5, the “Redroot pigweed plant response rating (0 to 10 scale)” value [15, 19] was 0 and the “Redroot pigweed plant response rating” value [15, 20] was 4. The “Redroot pigweed plant response rating” value [15, 21] was 10, the “Redroot pigweed plant response rating” value [15, 22] was 3 and the “Plant response rating, Redroot pigweed” value [15, 23] was 5. For the same compound, the “Redroot pigweed plant response rating” value [15, 24] was 6, the “Morningglory plant response rating” value [16, 17] was 6 and the “Morningglory plant response rating” value [16, 18] was 0. For the same compound, the “Morningglory plant response rating (0 to 10 scale)” value [16, 19] was 0, the “Morningglory plant response rating” value [16, 20] was 0 and the “Morningglory plant response rating” value [16, 21] was 0. For the same compound, the “Morningglory plant response rating” value [16, 22] was 3, the “Plant response rating, Morningglory” value [16, 23] was 8 and the “Morningglory plant response rating” value [16, 24] was 8.
